Experiments:
[1] = molecular target: T1, human dopamine D2L receptor (Homo sapiens, UniProt P14416); test: Receptor binding, displacement of [3H]-spiperone on CHO cell membranes; conditions: [3H]-spiperone displacement, recombinant human D2L in CHO membranes; s.e.m. in brackets; read-out: pKi value mean ± s.e.m. (converted)
T1 construct: host or cells: CHO-K1
Method: The potency of 3′-hydroxy-bifeprunox, 4′-hydroxy-bifeprunox, 3′-sulfate-bifeprunox, 4′-sulfate-bifeprunox and, for comparison, bifeprunox as a ligand on the human dopamine D2L receptor was investigated using a receptor binding assay and determination of functional activity was investigated using a cAMP assay. All compounds were dissolved in DMSO.
The binding of the compounds of the invention to the human D2L receptor was performed using displacement of radioactive-labeled [^3H]-spiperone binding on membranes prepared from Chinese hamster ovary (CHO) cells expressing the recombinant human D2L receptor.
Human dopamine D2L receptors were cloned in CHO-K1 cells and obtained from Dr. D. Grandy, Vollum Institute, Portland, Oreg., USA.
The binding assay has been carried out using [^3H]-spiperone as ligand (see Eur. J. Pharmacol. 46:377-381, 1977). The labeled compound was incubated with or without the test compound, with a preparation from cloned CHO cells carrying the human dopamine D2L receptor. Separation of bound and free ligand was performed by filtration over glassfiber-filters. After two washings, the bound-fraction remained on the filter. Radioactivity trapped on the filter was measured by scintillation counting. Results are expressed as pKi (negative logarithm of the inhibition constant Ki which is calculated form the IC50).

[2] = molecular target: T1, human dopamine D2L receptor; test: Adenylate cyclase activity (cAMP assay), inhibition of forskolin-stimulated cAMP accumulation in CHO cells; type: cell-based; conditions: for Conversion of cAMP, % of control (mean (±s.e.m.)): control = forskolin-stimulated cAMP accumulation; for EC50: inhibition of forskolin-induced cAMP accumulation, D2L agonism, read-out: pEC50 mean (±s.e.m.) (converted)
Method: All compounds were dissolved in DMSO.
For incubation with test compounds (concentrations 10^−6-10^−10M), confluent cultures grown in 24 wells plates were used. Each condition or substance was routinely tested in quadruplicate. Cells were loaded with 1 μCi [^3H]-adenine in 0.5 ml medium/well. After 2 hours, cultures were washed with 0.5 ml PBS containing […] IBMX and forskolin with or without test compound. After aspiration the reaction was stopped with 1 ml trichloroacetic acid 5% (w/v). […] The extract was passed over Dowex (50W-4 200-400 mesh) and aluminiumoxide columns, eluted with water and 0.1M imidazole (pH=7.5). Eluates were mixed with 7 ml of Insta-gel and radioactivity was counted with a scintillation counter. The conversion of the cAMP fraction as compared to combined radioactivity in both cAMP and ATP fractions, and basal activity was subtracted to correct for spontaneous activity.
Dopamine D2L: reference compound: quinpirole; incubation time: 20 min.
Subsequently, the mean of four observations was taken as an estimate for drug-induced, receptor-mediated effects at specified messenger accumulation, expressed as percentage of control values (forskolin-stimulated cAMP accumulation).
By using the non-linear curve-fitting program XL-FIT mean values were plotted against drug concentration (in molar) and sigmoid curve (four parameter logistic curve) was constructed. The maximal forskolin-induced stimulated conversion was taken as maximum value and the maximal inhibition as minimum and these values were fixed during the fitting process.

T1 sequence (P14416 whole entry): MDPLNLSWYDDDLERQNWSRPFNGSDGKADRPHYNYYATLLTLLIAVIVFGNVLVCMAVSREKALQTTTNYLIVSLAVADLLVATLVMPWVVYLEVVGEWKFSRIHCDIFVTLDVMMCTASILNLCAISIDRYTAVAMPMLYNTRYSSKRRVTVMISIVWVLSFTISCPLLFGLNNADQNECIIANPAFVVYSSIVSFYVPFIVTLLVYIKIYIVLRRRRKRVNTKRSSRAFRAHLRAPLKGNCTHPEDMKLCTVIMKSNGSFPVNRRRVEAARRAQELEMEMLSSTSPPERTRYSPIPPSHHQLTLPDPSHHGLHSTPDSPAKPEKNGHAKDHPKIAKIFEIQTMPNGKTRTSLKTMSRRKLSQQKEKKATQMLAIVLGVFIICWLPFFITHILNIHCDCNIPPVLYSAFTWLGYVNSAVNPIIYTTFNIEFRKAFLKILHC

Ki [1] [nM] | PS: mean % stimulation (agonism) at 1 μM [2] [%] | Conversion of cAMP, % of control (mean (±s.e.m.)) ([2]; 10^−6M test compound) | Conversion of cAMP, % of control (mean (±s.e.m.)) ([2]; 10^−7M test compound) | Conversion of cAMP, % of control (mean (±s.e.m.)) ([2]; 10^−8M test compound) | Conversion of cAMP, % of control (mean (±s.e.m.)) ([2]; 10^−9M test compound) | Conversion of cAMP, % of control (mean (±s.e.m.)) ([2]; 10^−10M test compound) | EC50 [2] [nM] | Compound
12.6 | 49 | 51 (10) % of control | 56 (8) % of control | 63 (7) % of control | 70 (6) % of control | 84 (4) % of control | 0.794 | O=c1[nH]c2cccc(N3CCN(Cc4cccc(-c5cccc(O)c5)c4)CC3)c2o1 [3′-OH, 7-[4-(3′-hydroxy[1,1′-biphenyl]-3-ylmethyl)-1-piperazinyl]-2(3H)-benzoxazolone]
12.6 | 51 | 49 (6) % of control | 66 (12) % of control | 79 (6) % of control | 93 (9) % of control | 94 (5) % of control | 12.6 | O=c1[nH]c2cccc(N3CCN(Cc4cccc(-c5cccc(OS(=O)(=O)O)c5)c4)CC3)c2o1 [3′-sulfate, 7-[4-(3′-sulfooxy[1,1′-biphenyl]-3-ylmethyl)-1-piperazinyl]-2(3H)-benzoxazolone]
39.8 | 31 | 69 (10) % of control | 69 (11) % of control | 84 (12) % of control | 94 (13) % of control | 95 (15) % of control | 6.31 | O=c1[nH]c2cccc(N3CCN(Cc4cccc(-c5ccccc5)c4)CC3)c2o1 [Bifeprunox, 7-[4-([1,1′-biphenyl]-3-ylmethyl1)-1-piperazinyl]-2(3H)-benzoxazolone monomethanesulphonate]

More lines, now with the values behind:

Compound | Ki [1] [nM] | PS: mean % stimulation (agonism) at 1 μM [2] [%] | Conversion of cAMP, % of control (mean (±s.e.m.)) ([2]; 10^−6M test compound) | Conversion of cAMP, % of control (mean (±s.e.m.)) ([2]; 10^−7M test compound) | Conversion of cAMP, % of control (mean (±s.e.m.)) ([2]; 10^−8M test compound) | Conversion of cAMP, % of control (mean (±s.e.m.)) ([2]; 10^−9M test compound) | Conversion of cAMP, % of control (mean (±s.e.m.)) ([2]; 10^−10M test compound) | EC50 [2] [nM]
O=c1[nH]c2cccc(N3CCN(Cc4cccc(-c5ccc(O)cc5)c4)CC3)c2o1 [4′-OH, 7-[4-(4′-hydroxy[1,1′-biphenyl]-3-ylmethyl)-1-piperazinyl]-2(3H)-benzoxazolone] | 12.6 | 55 | 45 (4) % of control | 50 (2) % of control | 58 (4) % of control | 59 (3) % of control | 90 (9) % of control | 0.2
O=c1[nH]c2cccc(N3CCN(Cc4cccc(-c5ccc(OS(=O)(=O)O)cc5)c4)CC3)c2o1 [4′-sulfate, 7-[4-(4′-sulfooxy[1,1′-biphenyl]-3-ylmethyl)-1-piperazinyl]-2(3H)-benzoxazolone] | 6.31 | 49 | 51 (16) % of control | 63 (14) % of control | 65 (13) % of control | 72 (13) % of control | 85 (9) % of control | 0.631

— patent US20110105523A1, “BIFEPRUNOX DERIVATIVES” (priority 2008, published 2011)
